Measured values reported in patent US20040106626A1, “6-Membered unsaturated heterocyclic compounds useful for selective inhibition of the coagulation cascade” (Pharmacia Corporation, priority 2001, published 2004).

Experiments:
Assay type in all cases: biochemical
[1] = target: T1, recombinant soluble tissue factor and recombinant human factor VIIa (TF-VIIa) (Homo sapiens, UniProt P08709); experiment: TF-VIIa assay (chromogenic substrate hydrolysis); settings: reported only as less than or greater than 0.1 uM
T1 construct: conversion of coagulation factor VII to VIIa by factor Xa; purchased American Diagnostica, Greenwich CT; host or cells: soluble TF made in house in E. coli
T1 sequence (P08709 213-466 limits assumed): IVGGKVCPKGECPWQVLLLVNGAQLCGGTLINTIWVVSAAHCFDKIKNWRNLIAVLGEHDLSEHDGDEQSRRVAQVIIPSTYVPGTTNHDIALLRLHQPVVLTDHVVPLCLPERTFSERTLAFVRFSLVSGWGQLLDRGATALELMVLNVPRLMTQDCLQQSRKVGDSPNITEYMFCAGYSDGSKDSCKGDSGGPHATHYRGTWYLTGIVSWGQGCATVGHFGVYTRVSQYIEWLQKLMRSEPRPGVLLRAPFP
T1 sequence (P08709 61-212 limits assumed): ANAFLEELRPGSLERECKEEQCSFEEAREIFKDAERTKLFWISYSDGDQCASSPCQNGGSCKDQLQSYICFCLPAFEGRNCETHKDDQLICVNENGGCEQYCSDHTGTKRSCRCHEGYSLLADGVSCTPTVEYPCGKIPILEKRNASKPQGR
T1 sequence (P13726 33-251 partner limits assumed): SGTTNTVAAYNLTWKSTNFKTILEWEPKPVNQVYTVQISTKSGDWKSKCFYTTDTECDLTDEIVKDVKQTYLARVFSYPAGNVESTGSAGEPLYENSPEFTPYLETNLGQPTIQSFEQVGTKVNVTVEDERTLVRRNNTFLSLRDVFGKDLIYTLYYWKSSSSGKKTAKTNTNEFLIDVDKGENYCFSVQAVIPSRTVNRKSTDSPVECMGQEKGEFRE
Summary of the method: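 100 nM soluble tissue factor and 2 nM recombinant human factor VIIa added to 0.4 mM N-methylsulfonyl-D-phe-gly-arg-p-nitroaniline with inhibitor in 50 mM Tris-HCl pH 8.0, 5 mM CaCl2, 100 mM NaCl, 0.1% BSA. Percent inhibition from OD405 versus control.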

[2] = target: T2, Human factor Xa (Homo sapiens, UniProt P00742); experiment: Xa assay (chromogenic substrate S-2765); settings: reported only as less than or greater than 30 uM; read-out: Factor Xa (II) IC50
T2 construct: purchased Enzyme Research Laboratories, South Bend Ind
T2 sequence (P00742 235-488 limits assumed): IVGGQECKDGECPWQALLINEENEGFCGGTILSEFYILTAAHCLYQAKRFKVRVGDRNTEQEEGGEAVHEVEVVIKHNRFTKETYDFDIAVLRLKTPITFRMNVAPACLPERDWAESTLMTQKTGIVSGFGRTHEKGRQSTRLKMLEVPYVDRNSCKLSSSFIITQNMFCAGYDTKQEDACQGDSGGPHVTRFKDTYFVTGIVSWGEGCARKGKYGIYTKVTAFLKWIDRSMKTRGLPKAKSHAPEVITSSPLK
T2 sequence (P00742 41-179 limits assumed): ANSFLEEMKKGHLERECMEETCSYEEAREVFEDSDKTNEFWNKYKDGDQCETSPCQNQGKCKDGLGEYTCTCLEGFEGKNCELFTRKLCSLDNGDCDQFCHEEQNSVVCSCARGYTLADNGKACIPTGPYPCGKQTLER
Summary of the method: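 Human factor Xa (0.3 nM) was incubated with inhibitor and 0.15 mM S-2765 in 50 mM Tris-HCl pH 8.0, 100 mM NaCl, 0.1% BSA. After 60 min at RT, p-nitroaniline release was read at 405 nm after background subtraction. Percent inhibition was calculated against uninhibited control.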

[3] = target: T3, Human thrombin (Homo sapiens, UniProt P00734); experiment: Thrombin assay (chromogenic substrate); settings: reported only as less than or greater than 30 uM; read-out: Thrombin (II) IC50
T3 construct: converts prothrombin (II) to thrombin (IIa); purchased Calbiochem, La Jolla, Calif
Summary of the method: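 Chromogenic assay with p-nitroaniline-releasing substrate; thrombin activity read as OD405 nm. Percent inhibition calculated from experimental versus control absorbance.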

[4] = system: Normal human pooled plasma; experiment: Prothrombin time (PT) clotting assay; settings: concentration at which prothrombin time is prolonged by 2x normal, reported as less than or greater than 50 uM
Procedure: The prothrombin time (PT) assay is a clotting assay that is used to determine deficiencies of clotting factor activity in the extrinsic pathway. The assay measures time to clotting after the addition of thromboplastin (human tissue factor). Normal human pooled plasma is incubated with 100 uM compound or saline in a coagulation machine. Thromboplastin is added and time to clotting is measured. Compounds with greater than 3×normal PT of 11.0 seconds are further analyzed by concentration response to determine at what concentration the prothrombin time is prolonged by 2×normal.

## CC(C)Nc1ncc(-c2cc(N)cc(N)c2)n(CC(=O)NCc2ccc(C(=N)N)s2)c1=O [Example 68]
[1]
  IC50: < 100 nM
[2]
  IC50: < 30 µM
[3]
  IC50: > 30 µM
[4]
  PT (Prothrombin time) 2xPT: <50.0 µM

## CC(C)CSc1cc(N)cc(-c2cnc(NC(C)C)c(=O)n2CC(=O)NCc2ccc(C(=N)N)cc2)c1 [Example 70, N-{4-[amino(imino)methyl]benzyl}-2-[6-[3-amino-5-(isobutylthio)phenyl]-3-(isopropylamino)-2-oxopyrazin-1 (2H)-yl]acetamide]
[1]
  IC50: < 100 nM
[2]
  IC50: > 30 µM
[3]
  IC50: > 30 µM
[4]
  PT (Prothrombin time) 2xPT: <50.0 µM

## CC[C@@H](C)NC(=O)c1cc(N)cc(-c2cnc(NC(C)C)c(=O)n2CC(=O)NCc2ccc(C(=N)N)cc2)c1 [Example 72]
[1]
  IC50: < 100 nM
[2]
  IC50: > 30 µM
[3]
  IC50: < 30 µM
[4]
  PT (Prothrombin time) 2xPT: <50.0 µM

## CC(C)C[S+]([O-])c1cc(N)cc(-c2cnc(NC(C)C)c(=O)n2CC(=O)NCc2ccc(C(=N)N)cc2)c1 (stereo not shown) [Example 73, N-{4-[amino(imino)methyl]benzyl}-2-[6-[3-amino-5-(isobutylsulfinyl)phenyl]-3-(isopropylamino)-2-oxopyrazin-1 (2H)-yl]acetamide]
[1]
  IC50: < 100 nM
[2]
  IC50: > 30 µM
[3]
  IC50: > 30 µM
[4]
  PT (Prothrombin time) 2xPT: <50.0 µM

## CC(C)CS(=O)(=O)c1cc(N)cc(-c2cnc(NC(C)C)c(=O)n2CC(=O)NCc2ccc(C(=N)N)cc2)c1 [Example 74, N-{4-[amino(imino)methyl]benzyl}-2-[6-[3-amino-5-(isobutylsulfonyl)phenyl]-3-(isopropylamino)-2-oxopyrazin-1 (2H)-yl]acetamide]
[1]
  IC50: < 100 nM
[2]
  IC50: > 30 µM
[3]
  IC50: > 30 µM
[4]
  PT (Prothrombin time) 2xPT: <50.0 µM

## CC(C)Nc1ncc(-c2cc(N)cc(CCCc3ccccc3)c2)n(CC(=O)NCc2ccc(C(=N)N)cc2)c1=O [Example 76, N-{4-[amino(imino)methyl]benzyl}-2-[6-[3-amino-5-(3-phenylpropyl)phenyl]-3-(isopropylamino)-2-oxopyrazin-1 (2H)-yl]acetamide]
[1]
  IC50: < 100 nM
[2]
  IC50: > 30 µM
[3]
  IC50: > 30 µM
[4]
  PT (Prothrombin time) 2xPT: <50.0 µM

## COC(=O)c1cc(N)cc(-c2cnc(NC(C)C)c(=O)n2CC(=O)NCc2ccc(C(=N)N)c(O)c2)c1 [Example 77]
[1]
  IC50: > 100 nM
[2]
  IC50: > 30 µM
[3]
  IC50: > 30 µM
[4]
  PT (Prothrombin time) 2xPT: <50.0 µM

## CC(C)Nc1ncc(-c2cc(N)cc(NC(=O)OC(C)(C)C)c2)n(CC(=O)NCc2ccc(C(=N)N)c(O)c2)c1=O [Example 78]
[1]
  IC50: > 100 nM
[2]
  IC50: > 30 µM
[3]
  IC50: > 30 µM
[4]
  PT (Prothrombin time) 2xPT: <50.0 µM

## CC(C)Nc1ncc(-c2cc(N)cc(N)c2)n(CC(=O)NCc2ccc(C(=N)N)c(O)c2)c1=O [Example 79]
[1]
  IC50: > 100 nM
[2]
  IC50: > 30 µM
[3]
  IC50: > 30 µM
[4]
  PT (Prothrombin time) 2xPT: <50.0 µM

## CC(C)Nc1ncc(-c2cc(N)cc(/C=C/Cc3ccccc3)c2)n(CC(=O)NCc2ccc(C(=N)N)cc2)c1=O [Example 80, N-{4-[amino(imino)methyl]benzyl}-2-[6-{3-amino-5-[(1E)-3-phenylprop-1-enyl]phenyl}-3-(isopropylamino)-2-oxopyrazin-1 (2H)-yl]acetamide]
[1]
  IC50: < 100 nM
[2]
  IC50: > 30 µM
[3]
  IC50: > 30 µM
[4]
  PT (Prothrombin time) 2xPT: >50.0 µM

## CC(C)Nc1ncc(-c2cc(N)cc(C(=O)N[C@H](C)C3CCCCC3)c2)n(CC(=O)NCc2ccc(C(=N)N)cc2)c1=O.O=C(O)C(F)(F)F [Example 81]
[1]
  IC50: < 100 nM
[2]
  IC50: > 30 µM
[3]
  IC50: < 30 µM
[4]
  PT (Prothrombin time) 2xPT: <50.0 µM

## CC(C)Nc1ncc(-c2cc(N)cc(C(=O)N[C@@H](C)C3CCCCC3)c2)n(CC(=O)NCc2ccc(C(=N)N)cc2)c1=O.O=C(O)C(F)(F)F [Example 82]
[1]
  IC50: < 100 nM
[2]
  IC50: > 30 µM
[3]
  IC50: < 30 µM
[4]
  PT (Prothrombin time) 2xPT: <50.0 µM

## CC(C)Nc1ncc(-c2cc(N)cc(C(=O)N[C@@H](C(=O)O)c3ccccc3)c2)n(CC(=O)NCc2ccc(C(=N)N)cc2)c1=O [Example 83]
[1]
  IC50: < 100 nM
[2]
  IC50: > 30 µM
[3]
  IC50: > 30 µM
[4]
  PT (Prothrombin time) 2xPT: <50.0 µM

## CC(C)Nc1ncc(-c2cc(N)cc(C(=O)N[C@H](C(=O)O)c3ccccc3)c2)n(CC(=O)NCc2ccc(C(=N)N)cc2)c1=O [Example 84]
[1]
  IC50: < 100 nM
[2]
  IC50: > 30 µM
[3]
  IC50: > 30 µM
[4]
  PT (Prothrombin time) 2xPT: <50.0 µM

## CCC(C)[C@H](NC(=O)c1cc(N)cc(-c2cnc(NC(C)C)c(=O)n2CC(=O)NCc2ccc(C(=N)N)cc2)c1)C(=O)O (stereo partly shown) [Example 85]
[1]
  IC50: < 100 nM
[2]
  IC50: > 30 µM
[3]
  IC50: > 30 µM
[4]
  PT (Prothrombin time) 2xPT: <50.0 µM

## COC(=O)[C@H](NC(=O)c1cc(N)cc(-c2cnc(NC(C)C)c(=O)n2CC(=O)NCc2ccc(C(=N)N)cc2)c1)c1ccccc1 [Example 86]
[1]
  IC50: < 100 nM
[2]
  IC50: > 30 µM
[3]
  IC50: < 30 µM
[4]
  PT (Prothrombin time) 2xPT: <50.0 µM

## COC(=O)[C@@H](NC(=O)c1cc(N)cc(-c2cnc(NC(C)C)c(=O)n2CC(=O)NCc2ccc(C(=N)N)cc2)c1)c1ccccc1 [Example 87]
[1]
  IC50: < 100 nM
[2]
  IC50: > 30 µM
[3]
  IC50: < 30 µM
[4]
  PT (Prothrombin time) 2xPT: <50.0 µM

## CC(C)Nc1ncc(-c2cc(N)cc(NS(=O)(=O)c3ccc(OC(F)(F)F)cc3)c2)n(CC(=O)NCc2ccc(C(=N)N)cc2)c1=O [Example 88]
[1]
  IC50: > 100 nM
[2]
  IC50: > 30 µM
[3]
  IC50: > 30 µM
[4]
  PT (Prothrombin time) 2xPT: <50.0 µM

## CC(C)Nc1ncc(-c2cc(N)cc(NS(=O)(=O)c3ccccc3C(F)(F)F)c2)n(CC(=O)NCc2ccc(C(=N)N)cc2)c1=O [Example 89]
[1]
  IC50: < 100 nM
[2]
  IC50: > 30 µM
[3]
  IC50: > 30 µM
[4]
  PT (Prothrombin time) 2xPT: <50.0 µM

## CC(C)Nc1ncc(-c2cc(N)cc(NS(=O)(=O)c3ccc4ccccc4c3)c2)n(CC(=O)NCc2ccc(C(=N)N)cc2)c1=O [Example 90]
[1]
  IC50: < 100 nM
[2]
  IC50: > 30 µM
[3]
  IC50: > 30 µM
[4]
  PT (Prothrombin time) 2xPT: <50.0 µM

## CC(C)Nc1ncc(-c2cc(N)cc(NS(=O)(=O)c3cccs3)c2)n(CC(=O)NCc2ccc(C(=N)N)cc2)c1=O [Example 91]
[1]
  IC50: < 100 nM
[2]
  IC50: > 30 µM
[3]
  IC50: > 30 µM
[4]
  PT (Prothrombin time) 2xPT: <50.0 µM

## COc1ccc(S(=O)(=O)Nc2cc(N)cc(-c3cnc(NC(C)C)c(=O)n3CC(=O)NCc3ccc(C(=N)N)cc3)c2)cc1 [Example 92]
[1]
  IC50: < 100 nM
[2]
  IC50: > 30 µM
[3]
  IC50: > 30 µM
[4]
  PT (Prothrombin time) 2xPT: <50.0 µM

## CC(C)Nc1ncc(-c2cc(N)cc(NS(=O)(=O)c3ccc(F)cc3)c2)n(CC(=O)NCc2ccc(C(=N)N)cc2)c1=O [Example 93]
[1]
  IC50: < 100 nM
[2]
  IC50: > 30 µM
[3]
  IC50: > 30 µM
[4]
  PT (Prothrombin time) 2xPT: <50.0 µM

## CC(C)Nc1ncc(-c2cc(N)cc(NS(=O)(=O)c3ccc(F)cc3F)c2)n(CC(=O)NCc2ccc(C(=N)N)cc2)c1=O [Example 94]
[1]
  IC50: < 100 nM
[2]
  IC50: > 30 µM
[3]
  IC50: > 30 µM
[4]
  PT (Prothrombin time) 2xPT: <50.0 µM

## CC(C)Nc1ncc(-c2cc(N)cc(NS(=O)(=O)CCc3ccccc3)c2)n(CC(=O)NCc2ccc(C(=N)N)cc2)c1=O [Example 95]
[1]
  IC50: < 100 nM
[2]
  IC50: > 30 µM
[3]
  IC50: > 30 µM
[4]
  PT (Prothrombin time) 2xPT: <50.0 µM

## CC(C)Nc1ncc(-c2cc(N)cc(NS(=O)(=O)c3ccccc3)c2)n(CC(=O)NCc2ccc(C(=N)N)cc2)c1=O [Example 96]
[1]
  IC50: < 100 nM
[2]
  IC50: > 30 µM
[3]
  IC50: > 30 µM
[4]
  PT (Prothrombin time) 2xPT: <50.0 µM

## CC(C)Nc1ncc(-c2cc(N)cc(NCc3ccccc3)c2)n(CC(=O)NCc2ccc(C(=N)N)cc2)c1=O [Example 98]
[1]
  IC50: < 100 nM
[2]
  IC50: > 30 µM
[3]
  IC50: > 30 µM
[4]
  PT (Prothrombin time) 2xPT: <50.0 µM

## CC(C)Nc1ncc(-c2cc(N)cc(NC(=O)Cc3ccccc3)c2)n(CC(=O)NCc2ccc(C(=N)N)cc2)c1=O [Example 99]
[1]
  IC50: < 100 nM
[2]
  IC50: > 30 µM
[3]
  IC50: > 30 µM
[4]
  PT (Prothrombin time) 2xPT: <50.0 µM

## CC(C)Nc1ncc(-c2cc(N)cc(NC(=O)C3CCCC3)c2)n(CC(=O)NCc2ccc(C(=N)N)cc2)c1=O [Example 100]
[1]
  IC50: < 100 nM
[2]
  IC50: > 30 µM
[3]
  IC50: < 30 µM
[4]
  PT (Prothrombin time) 2xPT: <50.0 µM

## CC(C)Nc1ncc(-c2cc(N)cc(NCCC(C)c3ccccc3)c2)n(CC(=O)NCc2ccc(C(=N)N)cc2)c1=O (stereo not shown) [Example 101]
[1]
  IC50: < 100 nM
[2]
  IC50: > 30 µM
[3]
  IC50: < 30 µM
[4]
  PT (Prothrombin time) 2xPT: <50.0 µM

## CC(C)CCNc1cc(N)cc(-c2cnc(NC(C)C)c(=O)n2CC(=O)NCc2ccc(C(=N)N)cc2)c1 [Example 102]
[1]
  IC50: < 100 nM
[2]
  IC50: > 30 µM
[3]
  IC50: < 30 µM
[4]
  PT (Prothrombin time) 2xPT: <50.0 µM
